This test addresses T1, ADRA2C (Homo sapiens, UniProt P18825).
T1 construct: purchased Promega (in-house HiBiT-GPCR construct library, NanoBRET)
T1 sequence (P18825 1-462): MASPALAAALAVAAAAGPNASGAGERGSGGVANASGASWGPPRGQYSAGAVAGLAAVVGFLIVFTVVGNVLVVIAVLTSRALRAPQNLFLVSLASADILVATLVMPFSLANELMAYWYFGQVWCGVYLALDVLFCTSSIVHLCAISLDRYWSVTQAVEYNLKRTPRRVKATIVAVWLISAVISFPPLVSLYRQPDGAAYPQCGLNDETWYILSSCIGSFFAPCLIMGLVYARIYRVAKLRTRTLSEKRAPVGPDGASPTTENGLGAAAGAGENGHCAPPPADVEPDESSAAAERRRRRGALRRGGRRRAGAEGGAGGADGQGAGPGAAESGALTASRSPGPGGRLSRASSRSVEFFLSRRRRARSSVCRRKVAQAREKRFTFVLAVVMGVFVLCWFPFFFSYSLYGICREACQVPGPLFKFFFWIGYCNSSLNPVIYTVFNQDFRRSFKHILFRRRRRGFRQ
Nature of the test: NanoBRET screen HiBiT-ADRA2C in HEK293. It is filed as binding. As to the method: Each tracer candidate was screened across the entire library of HiBiT-GPCR constructs using NanoBRET as the detection modality. As depicted in Figure 4A, the specificity of interactions was evaluated through decrease in BRET due to competitive displacement of a bound tracer by excess parental compound. Each tracer was analyzed for binding to each HiBiT-GPCR fusion in the absence and in the presence of competing parental compound. Briefly, HEK293 cells were transfected with HiBiT-GPCR constructs diluted into promoterless DNA to reduce expression and maximize translocation to the cell surface. Each tracer candidate was then screened at concentrations of 1 μM and 0.1 μM across cells expressing these fusions. Cells were treated for 1.5 h with tracer either alone or in the presence of 20 μM competing parental compound (i.e., control). BRET was measured upon addition of purified LgBiT and subsequent complementation with HiBiT genetically fused to a GPCR. The specificity of interactions was assessed through a decrease in BRET signal due to competitive displacement of the bound tracer. To further gauge the robustness of these interactions, the fold response over the control (i.e., BRETtracer/BRETcontrol) was calculated. We chose a 1.5-fold response, which translates to ≥7-fold signal over noise as the minimal threshold required to score an interaction as positive. […]. Below we highlight the screening results obtained for our exemplary fluorescent tracers based on Clozapine, Amitriptyline and AZD1283.
HiBiT-GPCR DNA constructs were diluted in 10 mM Tris pH 8 to a final concentration of 0.01 μg/μL, arrayed in 96-well plates and stored at −20 °C. For transfection, HEK293 cells were suspended in Opti-MEM (without phenol red) supplemented with 2% fetal bovine serum (Seradigm) and 100 units/mL penicillin–streptomycin (Gibco) at a final concentration of 220,000 cells/mL and dispensed into white 96-well plates at 90 μL/well. Subsequent transfections and screens were carried using an Agilent Bravo Automated Liquid Handling Platform. First, the 96-well HiBiT DNA arrays were diluted 25-fold in Opti-MEM (without serum or phenol red) to a final concentration of 0.0004 μg/μL and 20 μL of the diluted DNAs were transferred into new 96-well plates. Next, promoterless carrier DNA (1 μg/μL) was diluted 25-fold (0.04 μg/μL) and then dispensed into the diluted arrays at 20 μL/well. Following brief mixing, Viafect transfection reagent (Promega) diluted 16-fold into Opti-MEM was dispensed into the plates at 40 μL/well. After mixing by pipetting, plates were incubated for 10 min on the pipetting station deck. The DNA-transfection reagent complexes were then added to plates containing cells. To facilitate the screen, 10 μL of DNA-transfection reagent complexes were added in duplicates to the top 4 and bottom 4 rows, resulting in two identical 48-well arrays per plate. Plates with transfected cells were incubated for 18–20 h at 37 °C/5% CO2. A screen of each tracer across the entire library using two different concentrations requires duplicate plates of transfected cells. Depending on the number of tracers being screened, transfections can be scaled up using the same ratios. The next day, for each tracer, four 20× screening solutions in tracer dilution buffer (Promega) were prepared: two duplicates at final concentration of 20 μM and two duplicates at a final concentration of 2 μM. A competing unmodified compound was added to one of each duplicate at a final concentration of 400 μM. The four resulting solutions were diluted 4-fold in Opti-MEM without serum or phenol red to generate 5× solutions (5 µM and 0.5 µM tracer +/− 100 μM competing compound). To screen the library, a BioTek MultiFlo FX liquid dispenser was used to dispense 22.5 µL of tracer solution to the top 4 rows and 22.5 µL tracer + competing compound solution to the 4 bottom rows. Plates were briefly mixed on an orbital shaker and incubated for 1.5 h at room temperature. […]

Consider `O=C(CCc1ccc2n1[B-](F)(F)[N+]1=C(c3ccc[nH]3)C=CC1=C2)NCc1ccc(C(=O)NCCOCCC(=O)N[C@@H]2CC[C@@]3(O)[C@H]4Cc5ccc(O)c6c5[C@@]3(CCN4CC3CC3)[C@H]2O6)cc1` [Naltrexone-3-NB590], for which the “NanoBRET Fold Response” value is listed as 0.99 (ADRA2C, tracer 0.1μM) and 1.05 (ADRA2C, tracer 1μM). `CN1CCN(C2=Nc3cc(Cl)ccc3N(CC(=O)NCCOCCOCCOCCOCCNC(=O)CCc3ccc4n3[B-](F)(F)[N+]3=C(c5ccc[nH]5)C=CC3=C4)c3ccccc32)CC1` [Clozapine-c-2-NB590]: the “NanoBRET Fold Response” value runs as follows: (ADRA2C, 0.1μM tracer) 1.05; (ADRA2C, 1μM tracer) 1.49. For the molecule `O=C(CCOCCOCCOCCOCCNC(=O)CCc1ccc2n1[B-](F)(F)[N+]1=C(c3ccc[nH]3)C=CC1=C2)NCCCN1CCN(C2=Nc3cc(Cl)ccc3Nc3ccccc32)CC1` [Clozapine-a-2-NB590], the “NanoBRET Fold Response” value came to 1.80 (ADRA2C, 0.1μM tracer) and 1.62 (ADRA2C, 1μM tracer). Take `CCOC(=O)c1cc(C#N)c(N2CCC(C(=O)NS(=O)(=O)Cc3ccccc3/C=C/C(=O)NCCNC(=O)CCc3ccc4n3[B-](F)(F)[N+]3=C(c5ccc[nH]5)C=CC3=C4)CC2)nc1C` [AZD1283-1-NB590]: the “NanoBRET Fold Response” value runs as follows: (ADRA2C, 0.1μM) 1.05; (ADRA2C, 1μM) 1.04. With `COc1ccc2[nH]c(-c3ccc(CNC(=O)CCOCCOCCOCCOCCNC(=O)CCc4ccc5n4[B-](F)(F)[N+]4=C(c6ccc[nH]6)C=CC4=C5)cc3)c(CCNC(C)=O)c2n1` [AzomelatoninICO9-2-NB590], the “NanoBRET Fold Response” value (0.1μM tracer) amounted to 1.08 and the “NanoBRET Fold Response” value (1μM tracer) stood at 1.17. Consider `CCCn1c(=O)c2[nH]c(-c3ccc(OCC(=O)NCCNC(=O)CCOCCNC(=O)c4ccc(CNC(=O)CCc5ccc6n5[B-](F)(F)[N+]5=C(c7ccc[nH]7)C=CC5=C6)cc4)cc3)nc2n(CCC)c1=O` [XAC-3-NB590], for which the “NanoBRET Fold Response” value is 0.77 (ADRA2C, tracer 0.1μM) and 1.20 (ADRA2C, tracer 1μM).

On to `COc1ccccc1N1CCN(CCCCN2C(=O)c3ccc(CNC(=O)CCOCCNC(=O)c4ccc(CNC(=O)CCc5ccc6n5[B-](F)(F)[N+]5=C(c7ccc[nH]7)C=CC5=C6)cc4)cc3C2=O)CC1` [NAN-190-3-NB590], for which the “NanoBRET Fold Response” value was found to be 1.56 (ADRA2C, tracer 0.1μM) and 1.33 (ADRA2C, tracer 1μM).

On to `CN(CCC=C1c2ccccc2CCc2ccccc21)C(=O)CCOCCOCCOCCOCCNC(=O)CCc1ccc2n1[B-](F)(F)[N+]1=C(c3ccc[nH]3)C=CC1=C2` [Amitriptyline-e-2-NB590], for which the “NanoBRET Fold Response” value (tracer at 1μM) turned out to be 1.00.

In the case of `O=C(CCc1ccc2n1[B-](F)(F)[N+]1=C(c3ccc[nH]3)C=CC1=C2)NCc1ccc(C(=O)NCCOCCOCCNCC(O)COc2cccc3ccccc23)cc1` (centres unmarked) [Propranolol-3-NB590], the “NanoBRET Fold Response” value reads like this: (ADRA2C, 0.1μM) 0.95; (ADRA2C, 1μM) 1.05.

As to `COc1ccc2c(n1)c(CCNC(C)=O)cn2CCNC(=O)CCc1ccc2n1[B-](F)(F)[N+]1=C(c3ccc[nH]3)C=CC1=C2` [Azamelatonin-1-NB590], the “NanoBRET Fold Response” value amounted to 1.01 (0.1μM tracer) and 0.79 (1μM tracer). In the case of `O=C(CCOCCOCCOCCOCCNC(=O)CCc1ccc2n1[B-](F)(F)[N+]1=C(c3ccc[nH]3)C=CC1=C2)NCCCN1CCN(C2=Nc3ccccc3Oc3ccc(Cl)cc32)CC1` [Loxapine-a-2-NB590], the “NanoBRET Fold Response” value is, setting by setting: (ADRA2C, tracer 0.1μM) 1.13; (ADRA2C, tracer 1μM) 1.54. `N#CN/C(=N\CCNC(=O)c1ccc(N)cc1)NCCCOc1cccc(CN2CCCCC2)c1` [Aminopotentidine (unmodified)]: the “NanoBRET Fold Response” value is, setting by setting: (ADRA2C, other tracers/Aminopotentidine (unmodified), 0.1μM) 1.06; (ADRA2C, other tracers/Aminopotentidine (unmodified), 1μM) 1.11. Regarding `COc1ccccc1N1CCN(CCCCN2C(=O)c3ccc(CNC(=O)CCOCCOCCOCCOCCNC(=O)CCc4ccc5n4[B-](F)(F)[N+]4=C(c6ccc[nH]6)C=CC4=C5)cc3C2=O)CC1` [NAN-190-2-NB590], the “NanoBRET Fold Response” value is, setting by setting: (ADRA2C, tracer 0.1μM) 1.22; (ADRA2C, tracer 1μM) 0.89. In the same order, the values of `CC(C)N(CC[C@H](c1ccccc1)c1cc(CCNC(=O)c2ccc(CNC(=O)CCc3ccc4n3[B-](F)(F)[N+]3=C(c5ccc[nH]5)C=CC3=C4)cc2)ccc1O)C(C)C` [Tolterodine-BZ-NB590] are 1.09 and 1.11. For `O=C(CCc1ccc2n1[B-](F)(F)[N+]1=C(c3ccc[nH]3)C=CC1=C2)NCCOCCOCCNC(=O)OCCOCCN1CCN(C2=Nc3ccccc3Sc3ccccc32)CC1` [Quetiapine-a-2-NB590], under “ADRA2C, tracer 1μM”, the “NanoBRET Fold Response” value is listed as 1.42. As to `CN1CCN(C2=Nc3cc(Cl)ccc3Nc3ccc(CNC(=O)CCOCCOCCOCCOCCNC(=O)CCc4ccc5n4[B-](F)(F)[N+]4=C(c6ccc[nH]6)C=CC4=C5)cc32)CC1` [Clozapine-b-2-NB590], the “NanoBRET Fold Response” value (ADRA2C, 0.1μM tracer) is recorded as 1.25 and the “NanoBRET Fold Response” value (ADRA2C, 1μM tracer) came to 1.67. Turning to `CC(C)N(CC[C@H](c1ccccc1)c1cc(CCNC(=O)CCOCCOCCOCCOCCNC(=O)CCc2ccc3n2[B-](F)(F)[N+]2=C(c4ccc[nH]4)C=CC2=C3)ccc1O)C(C)C` [Tolterodine-2-NB590], the “NanoBRET Fold Response” value (ADRA2C, tracer 0.1μM) was 0.85 and the “NanoBRET Fold Response” value (ADRA2C, tracer 1μM) is 1.04.

With `CN(C)CCC=C1c2ccccc2CCc2ccc(C(=O)NCCNC(=O)CCOCCOCCOCCOCCNC(=O)CCc3ccc4n3[B-](F)(F)[N+]3=C(c5ccc[nH]5)C=CC3=C4)cc21` [Amitriptyline-a-2-NB590], the “NanoBRET Fold Response” value (tracer at 1μM) is 1.37. For the molecule `Cc1cc2c(s1)Nc1ccccc1N=C2N1CCN(CCCNC(=O)CCOCCOCCOCCOCCNC(=O)CCc2ccc3n2[B-](F)(F)[N+]2=C(c4ccc[nH]4)C=CC2=C3)CC1` [Olanzapine-a-2-NB590], the “NanoBRET Fold Response” value by setting is: (ADRA2C, tracer 0.1μM) 0.97; (ADRA2C, tracer 1μM) 1.50. Turning to `N#CN=C(NCCCOc1cccc(CN2CCCCC2)c1)NCCNC(=O)CCOCCOCCOCCOCCNC(=O)CCc1ccc2n1[B-](F)(F)[N+]1=C(c3ccc[nH]3)C=CC1=C2` [Aminopotentidine-2-NB590], the “NanoBRET Fold Response” value by setting is: (ADRA2C, tracer 0.1μM) 1.35; (ADRA2C, tracer 1μM) 1.25.

As for `Cc1nc2n(c(=O)c1CCN1CCC(c3noc4cc(F)ccc34)CC1)CCCC2OC(=O)NCCOCCOCCOCCOCCNC(=O)CCc1ccc2n1[B-](F)(F)[N+]1=C(c3ccc[nH]3)C=CC1=C2` (centres unmarked) [Risperidone-2-NB590], the “NanoBRET Fold Response” value is, setting by setting: (ADRA2C, tracer 0.1μM) 1.59; (ADRA2C, tracer 1μM) 1.37. Turning to `CN(C)CCC=C1c2ccccc2CCc2ccc(C(=O)NCCNC(=O)CCOCCOCCOCCOCCNC(=O)CCc3ccc4n3[B-](F)(F)[N+]3=C(c5ccc[nH]5)C=CC3=C4)cc21` [Amitriptyline-b-2-NB590], the “NanoBRET Fold Response” value by setting is: (tracer at 0.1μM, listed as amitriptyline-b-2-NB590) 1.08; (tracer at 1μM, listed as amitriptyline-b-2-NB590) 1.08.

The values above are taken from PMC8151276, “An Integrated Approach toward NanoBRET Tracers for Analysis of GPCR Ligand Engagement” (Molecules, 2021).
